Experimental data reported in patent publication US11026946B2, “Pharmacologically active alicyclic-substituted pyrazolo[1,5-a]pyrimidine derivatives” (RICHTER GEDEON NYRT., priority 2017, dated 2021).

Experiments:
GABAB receptor = molecular target: T1, GABAB receptor (Rattus norvegicus, UniProt O88871+Q9Z0U4); test: In vitro [35S]GTPγS binding assay in rat cortical membranes; assay type: biochemical; settings: PAM EC50, [35S]GTPγS binding, read-out: In vitro PAM potency
T1 construct: from tissue; host or cells: rat brain cortex membranes
Protocol: In Vitro [^35S]GTPγS Binding Assay in Rat Cortical Membranes
Cortices of freshly harvested rat brains were dissected on an ice-cold surface and homogenized by a glass Dounce homogeniser immediately in ice-cold buffer containing 50 mM Tris, 5 mM MgCl2 and 1 mM EDTA (pH=7.6). Tissue homogenates were centrifuged at 40000 g for 15 min at 4° C. Membrane pellets were resuspended in the same buffer and membranes were incubated for 10 min at 30° C. in a shaking water bath to eliminate endogenous GABA. Homogenates were centrifuged again under the same conditions. The final pellets were resuspended in ice-cold buffer (pH=7.6) containing 50 mM Tris, 100 mM NaCl, 7 mM MgCl2, 1 mM EDTA and 1 mM dithiotreithol (DTT) to yield a concentration of 20 mg tissue weight/ml and frozen at −70° C. until use. The assay was done in a buffer containing 50 mM Tris (pH=7.4), 100 mM NaCl, 7 mM MgCl2, 1 mM EDTA and 1 mM DTT. Each assay tube contained 150 μL GDP (in a final concentration of 50 μM), 100 μL ligand and 125 μL of the membrane suspension (250 μg tissue/tube). The assay tubes were preincubated for 10 min at 30° C. to assure equilibrium. Nonspecific binding was determined in the presence of 10 μM GTPγS: basal binding was determined in the presence of buffer only. After addition of 50 pM [^35S]GTPγS in a volume of 25 μL to the tubes, membranes were incubated for an additional 60 min at 30° C. The assay was terminated by rapid filtration through Packard UniFilter GF/B using a Packard harvester and washed four times with 1 ml ice-cold buffer. After drying the filters at 40° C. for 1 h, 40 μL Microscint (Packard) was added to the filters and radioactivity of the filters was determined by a TopCount NXT (PerkinElmer, Waltham, Mass.: Alper and Nelson, Eur. J. Pharmacol. 1998, 343, 303-312; Rinken et al, Biochem. Pharmacol. 1999, 57, 155-162). Data thus gathered were used to determine PAM EC50 values for each compound as primary in vitro activity end point.

adult rats = test: Foot shock-induced ultrasonic vocalization (USV) in adult rats; assay type: in vivo, rat; settings: 1 mg/kg per os, 1 h before shocking, male Wistar rats, versus vehicle
Protocol: Foot Shock-Induced Ultrasonic Vocalization (USV) in Adult Rats
(§1) Under stressful conditions, adult rats emit 22 kHz ultrasounds that can be reduced by various pharmacological treatments (De Vry et al, Eur. J. Pharmacol. 1993, 249, 331-339; Sanchez, Eur. J. Pharmacol. 2003, 463, 133-143). […] Therefore, a foot shock-induced vocalization paradigm in adult rats was used to assess efficacy of centrally acting GABAB receptor ligands. Behavioral measurements were carried out on male Wistar rats (200-250 g, Toxicoop, Hungary). Rats were housed in groups of four in plastic cages with a wire grid top in a temperature and light-controlled laboratory animal care unit (22±2° C., 12-h light/dark cycle, lights on at 6:00 AM) with ad libitum access to commercial pellet rat food and tap water. Investigations were approved by the Local Ethical Committee of Gedeon Richter Plc. and were carried out in strict compliance with the European Directive 2010/63/EU regarding the care and use of laboratory animals for experimental procedures and all efforts were made to minimize the number of animals as well as their suffering. In order to evoke emission of ultrasounds, animals were footshocked after a habituation period of 30 s (6 shocks, 1 s, 0.8 mA each, inter-shock interval 10 s) in a sound attenuated shocking chamber (Experimetria, 40×40×80 cm). Investigational compounds were administered at the dose of 1 mg/kg in a solid dispersion formulation in distilled water 1 h before shocking per os. Vocalizations were measured right after the last footshock for 10 min with a Metris Sonotrack system and the total time of vocalizations was registered. Vocalization of parallel vehicle treated animals was considered as control value and inhibition percent was calculated for each compound. At approximately 75 min after treatment and behavioral measurements, blood and brain samples were harvested in order to determine exposures associated with in vivo activity.

[1] = Plasma and brain levels after the USV assay; assay type: in vivo, rat; settings: 1 mg/kg per os, approximately 75 min after treatment; for brain exposure at 1 mg/kg: rat brain; for plasma exposure at 1 mg/kg: rat plasma
Protocol: as §1
In Table 2 compounds of this invention measured in the USV assay are listed. In Table 3 plasma and brain levels of compounds of this invention are listed.

GABAB receptors = GABAB receptors (Homo sapiens, UniProt O75899+Q9UBS5); settings: in vitro positive allosteric activity, [35S]GTPγS binding; cited from earlier work
Chain of GABAB receptors (O75899 42-941): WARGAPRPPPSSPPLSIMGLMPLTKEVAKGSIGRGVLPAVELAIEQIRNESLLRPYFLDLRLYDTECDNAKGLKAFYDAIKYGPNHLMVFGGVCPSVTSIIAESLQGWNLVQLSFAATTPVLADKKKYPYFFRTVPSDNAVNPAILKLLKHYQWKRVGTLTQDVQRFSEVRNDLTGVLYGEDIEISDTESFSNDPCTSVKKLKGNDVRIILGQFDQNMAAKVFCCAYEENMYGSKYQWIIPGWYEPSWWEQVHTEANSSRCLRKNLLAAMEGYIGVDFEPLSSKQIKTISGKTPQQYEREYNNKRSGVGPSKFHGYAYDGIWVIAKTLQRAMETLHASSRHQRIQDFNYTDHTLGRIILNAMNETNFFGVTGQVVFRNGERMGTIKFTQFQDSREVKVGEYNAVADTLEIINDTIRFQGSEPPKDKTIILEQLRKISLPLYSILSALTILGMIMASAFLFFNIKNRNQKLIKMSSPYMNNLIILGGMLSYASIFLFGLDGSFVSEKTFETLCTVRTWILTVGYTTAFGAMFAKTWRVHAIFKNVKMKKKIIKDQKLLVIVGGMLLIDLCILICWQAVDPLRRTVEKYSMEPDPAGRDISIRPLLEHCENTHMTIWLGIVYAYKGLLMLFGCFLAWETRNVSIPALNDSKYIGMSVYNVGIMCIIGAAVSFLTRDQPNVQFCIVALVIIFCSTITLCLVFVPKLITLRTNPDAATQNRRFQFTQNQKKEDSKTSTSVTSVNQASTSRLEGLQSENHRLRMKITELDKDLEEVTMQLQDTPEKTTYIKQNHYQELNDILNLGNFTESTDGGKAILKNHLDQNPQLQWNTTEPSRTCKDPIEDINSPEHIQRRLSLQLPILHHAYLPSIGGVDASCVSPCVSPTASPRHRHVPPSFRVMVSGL
Chain of GABAB receptors (Q9UBS5 15-961 limits assumed): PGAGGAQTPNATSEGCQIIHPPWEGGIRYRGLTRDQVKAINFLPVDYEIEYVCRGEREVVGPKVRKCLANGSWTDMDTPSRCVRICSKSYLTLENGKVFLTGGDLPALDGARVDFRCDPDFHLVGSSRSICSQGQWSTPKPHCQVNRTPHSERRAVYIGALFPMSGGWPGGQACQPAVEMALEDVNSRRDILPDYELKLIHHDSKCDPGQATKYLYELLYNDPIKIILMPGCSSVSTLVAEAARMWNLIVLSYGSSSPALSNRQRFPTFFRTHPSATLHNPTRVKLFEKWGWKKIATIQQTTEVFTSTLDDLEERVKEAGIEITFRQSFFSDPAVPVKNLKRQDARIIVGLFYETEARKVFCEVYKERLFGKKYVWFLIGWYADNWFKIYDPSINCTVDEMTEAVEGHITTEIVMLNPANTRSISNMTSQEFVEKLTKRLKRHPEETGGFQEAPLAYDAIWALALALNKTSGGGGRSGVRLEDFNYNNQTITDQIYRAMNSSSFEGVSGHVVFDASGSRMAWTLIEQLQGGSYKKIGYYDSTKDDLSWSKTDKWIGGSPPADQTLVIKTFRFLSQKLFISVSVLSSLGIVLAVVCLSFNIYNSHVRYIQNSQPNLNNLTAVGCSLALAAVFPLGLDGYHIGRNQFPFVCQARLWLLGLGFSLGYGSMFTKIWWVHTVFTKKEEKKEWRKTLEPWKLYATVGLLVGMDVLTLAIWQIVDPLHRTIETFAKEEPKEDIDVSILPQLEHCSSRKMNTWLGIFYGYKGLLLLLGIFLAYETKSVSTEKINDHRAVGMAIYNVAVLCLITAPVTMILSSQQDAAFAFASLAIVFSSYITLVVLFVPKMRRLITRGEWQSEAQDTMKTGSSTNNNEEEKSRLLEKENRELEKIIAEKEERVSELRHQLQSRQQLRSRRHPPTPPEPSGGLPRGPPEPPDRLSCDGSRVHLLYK

T1 sequence (O88871 41-940): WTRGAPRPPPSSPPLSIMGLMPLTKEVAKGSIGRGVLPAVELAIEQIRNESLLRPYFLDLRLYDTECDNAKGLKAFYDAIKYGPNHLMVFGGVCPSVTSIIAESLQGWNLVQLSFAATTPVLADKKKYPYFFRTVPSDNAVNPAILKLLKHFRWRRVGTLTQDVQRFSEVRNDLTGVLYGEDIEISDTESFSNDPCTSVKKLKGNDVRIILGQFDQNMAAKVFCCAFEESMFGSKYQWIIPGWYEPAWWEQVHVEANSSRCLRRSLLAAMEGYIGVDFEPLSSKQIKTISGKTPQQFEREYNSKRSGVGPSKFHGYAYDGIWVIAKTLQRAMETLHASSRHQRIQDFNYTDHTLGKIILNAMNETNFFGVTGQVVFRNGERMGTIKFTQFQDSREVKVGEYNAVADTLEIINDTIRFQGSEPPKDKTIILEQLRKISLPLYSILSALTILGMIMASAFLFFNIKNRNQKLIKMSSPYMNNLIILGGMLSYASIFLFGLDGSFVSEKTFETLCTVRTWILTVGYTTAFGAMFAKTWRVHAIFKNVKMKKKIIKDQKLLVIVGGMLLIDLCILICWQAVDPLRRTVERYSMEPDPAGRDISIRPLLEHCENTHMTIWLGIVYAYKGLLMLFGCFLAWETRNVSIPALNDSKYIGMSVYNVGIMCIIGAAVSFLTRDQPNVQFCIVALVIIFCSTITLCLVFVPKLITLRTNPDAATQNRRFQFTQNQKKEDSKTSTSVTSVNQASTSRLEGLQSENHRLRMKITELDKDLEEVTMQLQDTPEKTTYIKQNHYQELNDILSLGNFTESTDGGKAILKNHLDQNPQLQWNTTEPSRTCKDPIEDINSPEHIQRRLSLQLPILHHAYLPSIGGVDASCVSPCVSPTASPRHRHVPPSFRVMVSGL
T1 sequence (Q9Z0U4 17-960 limits assumed): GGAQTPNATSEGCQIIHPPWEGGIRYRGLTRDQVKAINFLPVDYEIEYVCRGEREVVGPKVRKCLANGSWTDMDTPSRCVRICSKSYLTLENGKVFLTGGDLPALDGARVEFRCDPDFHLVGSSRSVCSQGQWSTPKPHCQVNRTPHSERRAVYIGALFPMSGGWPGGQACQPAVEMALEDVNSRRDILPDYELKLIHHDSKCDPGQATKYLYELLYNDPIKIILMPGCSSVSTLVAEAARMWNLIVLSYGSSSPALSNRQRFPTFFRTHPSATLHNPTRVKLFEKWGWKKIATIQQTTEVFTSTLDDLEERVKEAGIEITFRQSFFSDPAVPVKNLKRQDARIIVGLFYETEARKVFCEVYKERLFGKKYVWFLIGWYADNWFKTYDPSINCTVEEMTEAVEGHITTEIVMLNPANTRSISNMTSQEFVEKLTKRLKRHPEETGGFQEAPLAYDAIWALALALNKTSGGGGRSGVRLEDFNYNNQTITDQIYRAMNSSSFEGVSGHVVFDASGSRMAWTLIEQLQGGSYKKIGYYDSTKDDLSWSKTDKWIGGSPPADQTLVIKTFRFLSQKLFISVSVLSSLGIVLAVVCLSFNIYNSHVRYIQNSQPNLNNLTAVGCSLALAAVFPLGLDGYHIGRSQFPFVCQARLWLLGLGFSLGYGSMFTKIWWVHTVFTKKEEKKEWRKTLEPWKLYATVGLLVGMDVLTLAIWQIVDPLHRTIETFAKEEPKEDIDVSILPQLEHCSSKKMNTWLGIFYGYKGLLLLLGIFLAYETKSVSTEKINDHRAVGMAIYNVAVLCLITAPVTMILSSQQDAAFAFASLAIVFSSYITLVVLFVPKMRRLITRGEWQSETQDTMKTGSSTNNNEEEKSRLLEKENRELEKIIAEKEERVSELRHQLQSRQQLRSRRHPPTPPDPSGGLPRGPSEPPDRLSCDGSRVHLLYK

Cc1nc2c(F)c([C@H]3CC[C@H](C(F)(F)F)CC3)nn2c(N2CCC[C@](C)(C(=O)O)C2)c1C(C)C (single isomer, unassigned) [Example 15]
EC50 (GABAB receptor): 1 to 10 nM | USV inhibition at 1 mg/kg (%) (adult rats): 89% | brain exposure at 1 mg/kg [1]: 53 ng/g | plasma exposure at 1 mg/kg [1]: 170 ng/mL

CC[C@@]1(C(=O)O)CCCN(c2c(C(C)C)c(C)nc3cc([C@H]4CC[C@H](C(F)(F)F)CC4)nn23)C1 (single isomer, unassigned) [Example 13]
EC50 (GABAB receptor): < 1 nM | USV inhibition at 1 mg/kg (%) (adult rats): 97% | brain exposure at 1 mg/kg [1]: 31 ng/g | plasma exposure at 1 mg/kg [1]: 124 ng/mL

Cc1nc2c(F)c([C@H]3CC[C@H](C(F)(F)F)CC3)nn2c(N2CCC[C@@](C)(C(=O)O)C2)c1C(C)C (single isomer, unassigned) [Example 16]
EC50 (GABAB receptor): < 1 nM | USV inhibition at 1 mg/kg (%) (adult rats): 100% | brain exposure at 1 mg/kg [1]: 36 ng/g | plasma exposure at 1 mg/kg [1]: 131 ng/mL

CC[C@]1(C(=O)O)CCCN(c2c(C(C)C)c(C)nc3c(F)c([C@H]4CC[C@H](C(F)(F)F)CC4)nn23)C1 (single isomer, unassigned) [Example 17]
EC50 (GABAB receptor): 1 to 10 nM | USV inhibition at 1 mg/kg (%) (adult rats): 79% | brain exposure at 1 mg/kg [1]: 74 ng/g | plasma exposure at 1 mg/kg [1]: 135 ng/mL

CCCC(c1ccc(Cl)cc1)c1cc2nc(C)cc(N3CCCCC3CCO)n2n1 (stereo not drawn) [Example 5-1]
binding potency (Faghih et al.) (GABAB receptors): nanomolar

Cc1nc2cc([C@H]3CC[C@H](C(F)(F)F)CC3)nn2c(N2CCC[C@](C)(C(=O)O)C2)c1C(C)C [Example 11]
EC50 (GABAB receptor): 1 to 10 nM | USV inhibition at 1 mg/kg (%) (adult rats): 71% | brain exposure at 1 mg/kg [1]: 68 ng/g | plasma exposure at 1 mg/kg [1]: 146 ng/mL

CCC(c1ccc(Cl)cc1)c1cc2nc(C)cc(N3CCCCC3CCO)n2n1 (stereo not drawn) [Example 3-1]
binding potency (Faghih et al.) (GABAB receptors): nanomolar

Cc1cc(N2CCCCC2CCO)n2nc(CC34CC5CC(CC(C5)C3)C4)cc2n1 (stereo not drawn) [Example 7-1]
binding potency (Faghih et al.) (GABAB receptors): high micromolar

CCc1c(C)nc2cc([C@H]3CC[C@H](C(F)(F)F)CC3)nn2c1N1CCC[C@@](CC)(C(=O)O)C1 [Example 28]
EC50 (GABAB receptor): 10 to 100 nM

C[C@@]1(C(=O)O)CCCN(c2c3c(nc4cc([C@H]5CC[C@H](C(F)(F)F)CC5)nn24)CCCC3)C1 [Example 34]
EC50 (GABAB receptor): 1 to 10 nM

C[C@@]1(C(=O)O)CCCN(c2c3c(nc4cc([C@H]5CC[C@H](C(F)(F)F)CC5)nn24)CCCCC3)C1 [Example 35]
EC50 (GABAB receptor): 1 to 10 nM | USV inhibition at 1 mg/kg (%) (adult rats): 57% | brain exposure at 1 mg/kg [1]: 35 ng/g | plasma exposure at 1 mg/kg [1]: 207 ng/mL

CC[C@]1(C(=O)O)CCCN(c2c(C(C)C)c(C)nc3cc([C@H]4CC[C@H](C(F)(F)F)CC4)nn23)C1 (single isomer, unassigned) [Example 12]
EC50 (GABAB receptor): 1 to 10 nM | USV inhibition at 1 mg/kg (%) (adult rats): 59% | brain exposure at 1 mg/kg [1]: 62 ng/g | plasma exposure at 1 mg/kg [1]: 121 ng/mL

C[C@@]1(C(=O)O)CCCN(c2c3c(nc4cc([C@H]5CC[C@H](C(F)(F)F)CC5)nn24)COCC3)C1 [Example 42]
EC50 (GABAB receptor): 100 to 1000 nM

CC[C@@]1(C(=O)O)CCCN(c2c(C(C)C)c(C)nc3c(F)c([C@H]4CC[C@H](C(F)(F)F)CC4)nn23)C1 (single isomer, unassigned) [Example 18]
EC50 (GABAB receptor): < 1 nM | USV inhibition at 1 mg/kg (%) (adult rats): 75% | brain exposure at 1 mg/kg [1]: 30 ng/g | plasma exposure at 1 mg/kg [1]: 175 ng/mL

Cc1nc2cc([C@H]3CC[C@H](C(F)(F)F)CC3)nn2c(N2CCC[C@](C(=O)O)(C(C)C)C2)c1C(C)C [Example 2, (3S)-1-[5-Methyl-6-(propan-2-yl)-2-[trans-4-(trifluoromethyl)cyclohexyl]-pyrazolo[1,5-a]pyrimidin-7-yl]-3-(propan-2-yl)piperidine-3-carboxylic Acid]
EC50 (GABAB receptor): 1 to 10 nM | USV inhibition at 1 mg/kg (%) (adult rats): 85% | brain exposure at 1 mg/kg [1]: 74 ng/g | plasma exposure at 1 mg/kg [1]: 188 ng/mL

Cc1nc2cc([C@H]3CC[C@H](C(F)(F)F)CC3)nn2c(N2CCC[C@@](C)(C(=O)O)C2)c1C(C)C [Example 3, (3R)-3-methyl-1-[5-methyl-6-(propan-2-yl)-2-[trans-4-(trifluoromethyl)cyclohexyl]-pyrazolo [1,5-a]pyrimidin-7-yl]piperidine-3-carboxylic Acid]
EC50 (GABAB receptor): < 1 nM | USV inhibition at 1 mg/kg (%) (adult rats): 100% | brain exposure at 1 mg/kg [1]: 18 ng/g | plasma exposure at 1 mg/kg [1]: 58 ng/mL

CCc1nc2cc([C@H]3CC[C@H](C(F)(F)F)CC3)nn2c(N2CCC[C@@](C)(C(=O)O)C2)c1CC [Example 33]
USV inhibition at 1 mg/kg (%) (adult rats): 63% | brain exposure at 1 mg/kg [1]: 34 ng/g | plasma exposure at 1 mg/kg [1]: 172 ng/mL

Cc1nc2cc(C3CCC(F)(F)CC3)nn2c(N2CCC[C@](C)(C(=O)O)C2)c1C(C)C [Example 29]
EC50 (GABAB receptor): 10 to 100 nM

Cc1nc2cc([C@H]3CC[C@H](C(F)(F)F)CC3)nn2c(N2CCC[C@@](C(=O)O)(C(C)C)C2)c1C(C)C [Example 14]
EC50 (GABAB receptor): 1 to 10 nM
